Where “and” joins values, the source holds several entries; their conditions need not be identical. Equal values may be shown once.
Key:
androgen receptor [1] = target: T1, androgen receptor (Homo sapiens, UniProt P10275); assay: human AR antagonist assay (Indigo Biosciences); assay type: cell-based; parameters: purchased Indigo Biosciences
T1 sequence (P10275 1-920): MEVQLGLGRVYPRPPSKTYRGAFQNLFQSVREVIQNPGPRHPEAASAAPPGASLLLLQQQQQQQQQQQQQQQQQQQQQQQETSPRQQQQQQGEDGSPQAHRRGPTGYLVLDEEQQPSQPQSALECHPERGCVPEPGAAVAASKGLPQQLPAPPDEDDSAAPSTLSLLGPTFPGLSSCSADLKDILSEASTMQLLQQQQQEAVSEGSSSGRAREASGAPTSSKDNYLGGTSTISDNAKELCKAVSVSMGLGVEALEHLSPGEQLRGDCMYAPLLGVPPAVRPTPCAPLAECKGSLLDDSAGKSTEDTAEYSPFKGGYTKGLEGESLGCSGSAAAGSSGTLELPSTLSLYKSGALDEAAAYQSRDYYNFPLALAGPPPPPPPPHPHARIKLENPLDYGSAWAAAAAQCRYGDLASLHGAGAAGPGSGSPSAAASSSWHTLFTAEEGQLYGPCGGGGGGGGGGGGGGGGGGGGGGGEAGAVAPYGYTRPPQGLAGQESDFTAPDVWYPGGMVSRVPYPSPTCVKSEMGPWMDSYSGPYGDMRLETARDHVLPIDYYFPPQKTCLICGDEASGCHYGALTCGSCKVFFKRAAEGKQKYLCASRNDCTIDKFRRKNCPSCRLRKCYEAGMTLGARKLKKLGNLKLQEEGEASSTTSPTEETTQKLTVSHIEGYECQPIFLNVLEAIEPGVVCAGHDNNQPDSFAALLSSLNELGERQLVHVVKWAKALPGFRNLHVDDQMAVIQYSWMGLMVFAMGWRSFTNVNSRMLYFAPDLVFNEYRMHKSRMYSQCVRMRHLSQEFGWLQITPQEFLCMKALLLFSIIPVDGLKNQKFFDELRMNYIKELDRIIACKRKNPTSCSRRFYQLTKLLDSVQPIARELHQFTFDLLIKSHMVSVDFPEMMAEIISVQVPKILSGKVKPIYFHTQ
From the text: (§1) The activity of a compound can be determined using various known methods. For example, AR assays can be used. Such AR assays include binding assays using, for example, cells transfected with the human androgen receptor. Several cell based model systems that allow sensitive detection and monitoring of steroids or other compounds with AR bioactivity are known. Most cell based AR reporter models use transgenic gene constructs that include an androgen response element (ARE) that controls reporter gene (e.g., lucifersrase) expression. For example, a human AR Reporter Assay System is commercially available from Indigo Biosciecnes. The principle application of such an assay product is to quantify functional activities, either agonist or antagonist, that a compound may exert against the human androgen receptor. […] In addition, the anti-proliferative activity of a compound can be determined using various known methods, including in vitro and in vivo antiproliferative assays using cancer cell lines such as a prostate cancer cell line.
(§2) The activity of certain compounds were tested in a human AR agonist assay and a human AR antagonist assay (Indigo Biosciences).

androgen receptor [2] = target: T1, androgen receptor; assay: AR binding (Ki, Table A)
From the text: as §1

androgen receptor [3] = target: T1, androgen receptor; assay: human AR agonist assay (Indigo Biosciences); assay type: cell-based; parameters: purchased Indigo Biosciences; conditions: for HillSlope: agonist mode, Table 1 / FIG. 1
From the text: as §1, §2

[4] = antagonist mode, Table 3 / FIG. 3
[5] = antagonist mode, Table 2 / FIG. 2

| SMILES | IC50 (androgen receptor [1]; Table A) [nM] | Ki (androgen receptor [2]) [nM] | HillSlope (androgen receptor [3]) | HillSlope (androgen receptor [1]; [5]) | IC50 (androgen receptor [1]; [5]) [nM] | further results |
| --- | --- | --- | --- | --- | --- | --- |
| CC(C)CCC[C@]12CC[C@@]3(C)C(=C1C[C@@H](O)C2)CCC1=CC(=O)CC[C@@H]13 [Compound 108] |  |  |  |  |  | HillSlope (androgen receptor [1]; [4]): 1.225 |
| C[C@@]12CC[C@]3(C)C(=C1C[C@@H](O)C2)CCC1=CC(=O)CC[C@H]13 [Compound 105] | 1500 |  |  |  |  |  |
| C[C@@]12CC[C@]3(C)C(=C1C[C@H](O)C2)CCC1=CC(=O)CC[C@H]13 [Compound 104] | 4300 |  |  |  |  |  |
| CC(C)CCC[C@]12CC[C@@]3(C)C(=C1C[C@@H](O)C2)CCC1=CC(=O)CC[C@@H]13 [Compound 110] |  |  |  |  |  | HillSlope (androgen receptor [1]; [4]): 0.6338 |
| C[C@]12CC[C@@]3(C)C(=C1C[C@@H](O)C2)CCC1=CC(=O)CC[C@@H]13 [Compound 102, (9R,10S,13R,16S)-16-hydroxy-9,13-dimethyl-1,2,6,7,9,10,11,12,13,15,16,17-dodecahydro-3H-cyclopenta[a]phenanthren-3-one] | 654 | 919 | 1.300 | 1.728 | 654 | EC50 (androgen receptor [3]): 23000 nM |
| CC(=O)O[C@@H]1CC2=C3CCC4=CC(=O)CC[C@@H]4[C@@]3(C)CC[C@]2(C)C1 [Compound 101, (9R,10S,13R,16S)-9,13-dimethyl-3-oxo-2,3,6,7,9,10,11,12,13,15,16,17-dodecahydro-1H-cyclopenta[a]phenanthren-16-yl acetate] | 413 | 7350 | 1.063 | 2.100 | 413 | EC50 (androgen receptor [3]): 10000 nM |
| C[C@]12CC[C@@]3(C)C(=C1C[C@H](O)C2)CCC1=CC(=O)CC[C@@H]13 [Compound 103, (9R,10S,13R,16R)-16-hydroxy-9,13-dimethyl-1,2,6,7,9,10,11,12,13,15,16,17-dodecahydro-3H-cyclopenta[a]phenanthren-3-one] | 1240 | 3460 | ≈1.247 | 1.906 | 1240 |  |
| CC(C)(O)C(=O)Nc1ccc([N+](=O)[O-])c(C(F)(F)F)c1 [hydroxyflutamide, reference compound] |  |  |  |  |  | HillSlope (androgen receptor [1]): 1.305 and 1.653 |
| C[C@]12CC[C@@]3(C)C(=C1C[C@@H](O)C2)CCC1=C[C@@H](O)CC[C@@H]13 [Compound 107] | 4800 |  |  |  |  |  |
